Reference: patent publication US10988478B1, “Pyrazolo[1,5a]pyrimidine derivatives as IRAK4 modulators” (Genentech, Inc., priority 2015, dated 2021)

Molecular target: human IRAK4 (Homo sapiens (Human), UniProt Q9NWZ3)
Test: IRAK4 kinase inhibition, Transcreener fluorescence polarization ADP assay
Assay type: biochemical
Conditions: recombinant full-length His6-IRAK4; 125 uM ATP; 90 min; Ki computed using ATP Km 642 uM
Experimental: Compounds were assayed for inhibition of human IRAK4 and IRAK1 catalytic activity using recombinant enzyme produced from insect cells. Full-length IRAK4 protein, carrying an N-terminal His6-Tag, was obtained from Life Technologies (Carlsbad, Calif., USA). The IRAK1 construct was produced internally and was comprised of IRAK1 residues Arg194 to Ser712, preceded by an NH2-terminal His6 tag and the coding sequence for glutathione-S-transferase.

Chain of human IRAK4 (Q9NWZ3 whole entry): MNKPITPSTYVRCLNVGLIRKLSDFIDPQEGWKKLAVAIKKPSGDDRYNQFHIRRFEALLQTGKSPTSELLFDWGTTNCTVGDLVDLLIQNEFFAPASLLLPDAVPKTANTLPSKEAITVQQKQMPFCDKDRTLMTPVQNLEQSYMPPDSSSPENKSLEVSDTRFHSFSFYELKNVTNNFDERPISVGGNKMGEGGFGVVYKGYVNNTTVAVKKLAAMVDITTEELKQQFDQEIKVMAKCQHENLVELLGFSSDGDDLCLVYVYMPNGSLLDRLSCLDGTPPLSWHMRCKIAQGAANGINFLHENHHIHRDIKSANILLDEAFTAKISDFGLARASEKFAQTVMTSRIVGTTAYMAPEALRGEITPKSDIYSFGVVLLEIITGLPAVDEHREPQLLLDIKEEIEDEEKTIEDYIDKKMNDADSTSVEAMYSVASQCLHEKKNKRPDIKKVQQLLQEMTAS

Ki [nM] | SMILES
5.1 | Cn1cncc1CN1CCN(c2cc3c(cc2NC(=O)c2cnn4cccnc24)CC(C)(C)O3)CC1 [Example 506, N-(2,2-dimethyl-6-(4-((1-methyl-1H-imidazol-5-yl)methyl)piperazin-1-yl)-2,3-dihydrobenzofuran-5-yl)pyrazolo[1,5-a]pyrimidine-3-carboxamide]
3.2 | Cc1nc(CN2CCN(c3cc4c(cc3NC(=O)c3cnn5cccnc35)CC(C)(C)O4)CC2)c[nH]1 [Example 507, N-(2,2-dimethyl-6-(4-((2-methyl-1H-imidazol-4-yl)methyl)piperazin-1-yl)-2,3-dihydrobenzofuran-5-yl)pyrazolo[1,5-a]pyrimidine-3-carboxamide]
43 | CC(C)N1CCN(c2cc3c(cc2NC(=O)c2cnn4cccnc24)CC(C)(C)O3)CC1 [Example 508, N-(6-(4-isopropylpiperazin-1-yl)-2,2-dimethyl-2,3-dihydrobenzofuran-5-yl)pyrazolo[1,5-a]pyrimidine-3-carboxamide]
1.1 | CC1(C)Cc2cc(NC(=O)c3cnn4cccnc34)c(N3CCN(Cc4c[nH]cn4)CC3)cc2O1 [Example 509, N-(6-(4-((1H-imidazol-4-yl)methyl)piperazin-1-yl)-2,2-dimethyl-2,3-dihydrobenzofuran-5-yl)pyrazolo[1,5-a]pyrimidine-3-carboxamide]
44 | C[C@]1(O)COc2cc(N3CCN(CC(F)F)CC3)c(NC(=O)c3cnn4cccnc34)cc2C1 [Example 510, (R)—N-(7-(4-(2,2-difluoroethyl)piperazin-1-yl)-3-hydroxy-3-methylchroman-6-yl)pyrazolo[1,5-a]pyrimidine-3-carboxamide]
150 | CC1(C)Cc2cc(NC(=O)c3cnn4ccc(C[C@@H]5CNC(=O)C5)nc34)c(C3CC3)cc2O1 [Example 512, (S)—N-(6-Cyclopropyl-2,2-dimethyl-2,3-dihydrobenzofuran-5-yl)-5-((5-oxopyrrolidin-3-yl)methyl)pyrazolo[1,5-a]pyrimidine-3-carboxamide]
210 | CC1(C)Cc2cc(NC(=O)c3cnn4ccc(C[C@H]5CNC(=O)C5)nc34)c(C3CC3)cc2O1 [Example 513, (R)—N-(6-cyclopropyl-2,2-dimethyl-2,3-dihydrobenzofuran-5-yl)-5-((5-oxopyrrolidin-3-yl)methyl)pyrazolo[1,5-a]pyrimidine-3-carboxamide]
810 | CC1(C)Cc2cc(NC(=O)c3cnn4ccc(C[C@H]5CCNC5=O)nc34)c(C3CC3)cc2O1 [Example 514, (R)—N-(6-cyclopropyl-2,2-dimethyl-2,3-dihydrobenzofuran-5-yl)-5-((2-oxopyrrolidin-3-yl)methyl)pyrazolo[1,5-a]pyrimidine-3-carboxamide]
420 | CC1(C)Cc2cc(NC(=O)c3cnn4ccc(C[C@@H]5CCNC5=O)nc34)c(C3CC3)cc2O1 [Example 515, (S)—N-(6-cyclopropyl-2,2-dimethyl-2,3-dihydrobenzofuran-5-yl)-5-((2-oxopyrrolidin-3-yl)methyl)pyrazolo[1,5-a]pyrimidine-3-carboxamide]
130 | CP(C)(=O)c1ccc(NC(=O)c2cnn3cccnc23)c(N2CCOCC2)c1 [Example 518, N-(4-dimethylphosphoryl-2-morpholino-phenyl)pyrazolo[1,5-a]pyrimidine-3-carboxamide]
39 | C[C@@]1(CC#N)COc2cc(N3CCOCC3)c(NC(=O)c3cnn4cccnc34)cc2C1 [Example 519, N-[(3R)-3-(cyanomethyl)-3-methyl-7-morpholino-chroman-6-yl]pyrazolo[1,5-a]pyrimidine-3-carboxamide]
1.1 | C[C@]1(CC#N)COc2cc(N3CCOCC3)c(NC(=O)c3cnn4cccnc34)cc2C1 [Example 520, N-[(3S)-3-(cyanomethyl)-3-methyl-7-morpholino-chroman-6-yl]pyrazolo[1,5-a]pyrimidine-3-carboxamide]
4 | CC(C)(O)[C@H](F)CN1Cc2cc(NC(=O)c3cnn4cccnc34)c(Cl)cc2C1=O [Example 521, N-[6-chloro-2-[(2R)-2-fluoro-3-hydroxy-3-methyl-butyl]-1-oxo-isoindolin-5-yl]pyrazolo[1,5-a]pyrimidine-3-carboxamide]
3.4 | CC(C)(O)[C@@]1(C)Cc2cc(NC(=O)c3cnn4cccnc34)c(N3CCN(Cc4c[nH]cn4)CC3)cc2O1 [Example 522, N-[(2R)-2-(1-Hydroxy-1-methyl-ethyl)-6-[4-(1H-imidazol-4-ylmethyl)piperazin-1-yl]-2-methyl-3H-benzofuran-5-yl]pyrazolo[1,5-a]pyrimidine-3-carboxamide]
4.4 | CC(C)(O)[C@]1(C)Cc2cc(NC(=O)c3cnn4cccnc34)c(N3CCN(Cc4c[nH]cn4)CC3)cc2O1 [Example 523, N-[(2S)-2-(1-hydroxy-1-methyl-ethyl)-6-[4-(1H-imidazol-4-ylmethyl)piperazin-1-yl]-2-methyl-3H-benzofuran-5-yl]pyrazolo[1,5-a]pyrimidine-3-carboxamide]
4.2 | CC(C)(O)[C@@]1(C)Cc2cc(NC(=O)c3cnn4cccnc34)c(N3CCN(CC(N)=O)CC3)cc2O1 [Example 525, N-[(2R)-6-[4-(2-amino-2-oxo-ethyl)piperazin-1-yl]-2-(1-hydroxy-1-methyl-ethyl)-2-methyl-3H-benzofuran-5-yl]pyrazolo[1,5-a]pyrimidine-3-carboxamide]
3.2 | CC1(C)Cc2cc(NC(=O)c3cnn4cccnc34)c(N3CCC(C(N)=O)CC3)cc2O1 [Example 531, N-[6-(4-carbamoyl-1-piperidyl)-2,2-dimethyl-3H-benzofuran-5-yl]pyrazolo[1,5-a]pyrimidine-3-carboxamide]
7.2 | CN(C)C1CCN(c2cc3c(cc2NC(=O)c2cnn4cccnc24)CC(C)(C)O3)CC1 [Example 532, N-[6-[4-(dimethylamino)-1-piperidyl]-2,2-dimethyl-3H-benzofuran-5-yl]pyrazolo[1,5-a]pyrimidine-3-carboxamide]
13 | CC1(C)Cc2cc(NC(=O)c3cnn4cccnc34)c(N3CCNCC3)cc2O1 [Example 533, N-(2,2-dimethyl-6-piperazin-1-yl-3H-benzofuran-5-yl)pyrazolo[1,5-a]pyrimidine-3-carboxamide]
2 | CC1(C)Cc2cc(NC(=O)c3cnn4cccnc34)c(N3CCC(F)(C(N)=O)CC3)cc2O1 [Example 534, N-[6-(4-carbamoyl-4-fluoro-1-piperidyl)-2,2-dimethyl-3H-benzofuran-5-yl]pyrazolo[1,5-a]pyrimidine-3-carboxamide]
3.1 | CC1(CC(N)=O)CCN(c2cc3c(cc2NC(=O)c2cnn4cccnc24)CC(C)(C)O3)CC1 [Example 535, N-[6-[4-(2-Amino-2-oxo-ethyl)-4-methyl-1-piperidyl]-2,2-dimethyl-3H-benzofuran-5-yl]pyrazolo[1,5-a]pyrimidine-3-carboxamide]
3.1 | CC1(C)Cc2cc(NC(=O)c3cnn4cccnc34)c(N3CCC(O)(CC(N)=O)CC3)cc2O1 [Example 536, N-[6-[4-(2-amino-2-oxo-ethyl)-4-hydroxy-1-piperidyl]-2,2-dimethyl-3H-benzofuran-5-yl]pyrazolo[1,5-a]pyrimidine-3-carboxamide]
12 | CN(C)c1cc2c(cc1NC(=O)c1cnn3cccnc13)CC(C)(C)O2 [Example 537, N-(6-(dimethylamino)-2,2-dimethyl-2,3-dihydrobenzofuran-5-yl)pyrazolo[1,5-a]pyrimidine-3-carboxamide]
220 | Cn1cnc(COc2cc3c(cc2NC(=O)c2cnn4cccnc24)CC(C)(C)O3)c1 [Example 538, N-(2,2-dimethyl-6-((1-methyl-1H-imidazol-4-yl)methoxy)-2,3-dihydrobenzofuran-5-yl)pyrazolo[1,5-a]pyrimidine-3-carboxamide]
33 | CC1(C)Cc2cc(NC(=O)c3cnn4cccnc34)c(OCc3c[nH]cn3)cc2O1 [Example 539, N-[6-(1H-Imidazol-4-ylmethoxy)-2,2-dimethyl-3H-benzofuran-5-yl]pyrazolo[1,5-a]pyrimidine-3-carboxamide]
74 | CC1(C)Cc2cc(NC(=O)c3cnn4cccnc34)c(OC[C@H]3CCC(=O)N3)cc2O1 [Example 540, N-[2,2-dimethyl-6-[[(2R)-5-oxopyrrolidin-2-yl]methoxy]-3H-benzofuran-5-yl]pyrazolo[1,5-a]pyrimidine-3-carboxamide]
190 | CC1(C)Cc2cc(NC(=O)c3cnn4cccnc34)c(OC[C@@H]3CCC(=O)N3)cc2O1 [Example 541, N-[2,2-dimethyl-6-[[(2S)-5-oxopyrrolidin-2-yl]methoxy]-3H-benzofuran-5-yl]pyrazolo[1,5-a]pyrimidine-3-carboxamide]
59 | Cc1cc(COc2cc3c(cc2NC(=O)c2cnn4cccnc24)CC(C)(C)O3)n[nH]1 [Example 542, N-[2,2-Dimethyl-6-[(5-methyl-1H-pyrazol-3-yl)methoxy]-3H-benzofuran-5-yl]pyrazolo[1,5-a]pyrimidine-3-carboxamide]
38 | CC(C)(O)[C@H]1CC[C@@H](N2Cc3cc(NC(=O)c4cnn5cccnc45)c(N4CCOCC4)cc3C2=O)CC1 [Example 547, Cis-N-[2-[4-(1-Hydroxy-1-methyl-ethyl)cyclohexyl]-6-morpholino-1-oxo-isoindolin-5-yl]pyrazolo[1,5-a]pyrimidine-3-carboxamide]
2.9 | CC(C)(O)[C@H]1CC[C@H](N2Cc3cc(NC(=O)c4cnn5cccnc45)c(N4CCOCC4)cc3C2=O)CC1 [Example 548, trans-N-[2-[4-(1-Hydroxy-1-methyl-ethyl)cyclohexyl]-6-morpholino-1-oxo-isoindolin-5-yl]pyrazolo[1,5-a]pyrimidine-3-carboxamide]

SMILES | Ki [nM]
CC(C)(O)[C@]1(C)Cc2cc(NC(=O)c3cnn4cccnc34)c(N3CCN(CC(N)=O)CC3)cc2O1 [Example 524, N-[(2S)-6-[4-(2-amino-2-oxo-ethyl)piperazin-1-yl]-2-(1-hydroxy-1-methyl-ethyl)-2-methyl-3H-benzofuran-5-yl]pyrazolo[1,5-a]pyrimidine-3-carboxamide] | 4.1
